Experimental data from ChEMBL document CHEMBL1146412, “Sch 54445: a new polycyclic xanthone with highly potent antifungal activity produced by Actinoplanes sp” (J Nat Prod, 1997).

Experiment: Toxicity in iv dosed mouse
Assay type: organism-based
Conditions: in vivo

Question: Which LD50 does the source give for `CCC(C)c1cc2c(Cl)c3c(c(O)c2c(=O)n1N)-c1c(O)c2c(c4c1[C@@H](C3)OCO4)O[C@H]1[C@@H](C2=O)[C@@H](O)C=C[C@H]1OC` (stereo partly specified) here?
Answer: 1 mg/kg
